Key:
Rattus norvegicus [1] = experiment: Reduction in DOPAC level in Sprague-Dawley rat striatum at 100 umol/kg, sc measured after 1 hr relative to control; type: functional
D(2) dopamine receptor = D(2) dopamine receptor (Homo sapiens, UniProt P14416); experiment: Displacement of [3H]7-OH-DPAT from human D2S receptor high affinity site expressed in HEK293 cells; type: cell-based
Rattus norvegicus [2] = experiment: Reduction in DOPAC level in Sprague-Dawley rat striatum at 33 umol/kg, sc measured after 1 hr relative to control; type: functional; set-up: scale not given: the % may be the effect or the level left
[3] = biological target: T1, Amine oxidase [flavin-containing] A (Rattus norvegicus, UniProt P21396); experiment: Displacement of [3H]Ro 41-1049 from rat MAO-A receptor expressed in HEK293 cells; type: cell-based
T1 sequence (P21396 whole entry): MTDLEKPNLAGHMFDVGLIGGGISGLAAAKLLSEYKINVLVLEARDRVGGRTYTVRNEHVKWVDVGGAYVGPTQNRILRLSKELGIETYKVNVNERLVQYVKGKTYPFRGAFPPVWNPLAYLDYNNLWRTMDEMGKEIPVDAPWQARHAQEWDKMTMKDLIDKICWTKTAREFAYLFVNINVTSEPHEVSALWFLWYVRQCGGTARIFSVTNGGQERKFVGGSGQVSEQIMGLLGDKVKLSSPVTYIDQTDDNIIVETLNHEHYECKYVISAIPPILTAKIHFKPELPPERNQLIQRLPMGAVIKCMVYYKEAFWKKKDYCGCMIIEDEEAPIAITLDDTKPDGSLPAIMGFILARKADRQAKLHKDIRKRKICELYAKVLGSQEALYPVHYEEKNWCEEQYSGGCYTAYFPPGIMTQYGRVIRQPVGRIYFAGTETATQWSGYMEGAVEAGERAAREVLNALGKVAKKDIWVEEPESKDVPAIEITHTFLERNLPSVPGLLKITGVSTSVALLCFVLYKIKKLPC

Rattus norvegicus [4] = experiment: Reduction in DOPAC level in Sprague-Dawley rat striatum at 50 umol/kg, sc measured after 1 hr relative to control; type: functional; set-up: scale not given: the % may be the effect or the level left

Chain of D(2) dopamine receptor (P14416 whole entry): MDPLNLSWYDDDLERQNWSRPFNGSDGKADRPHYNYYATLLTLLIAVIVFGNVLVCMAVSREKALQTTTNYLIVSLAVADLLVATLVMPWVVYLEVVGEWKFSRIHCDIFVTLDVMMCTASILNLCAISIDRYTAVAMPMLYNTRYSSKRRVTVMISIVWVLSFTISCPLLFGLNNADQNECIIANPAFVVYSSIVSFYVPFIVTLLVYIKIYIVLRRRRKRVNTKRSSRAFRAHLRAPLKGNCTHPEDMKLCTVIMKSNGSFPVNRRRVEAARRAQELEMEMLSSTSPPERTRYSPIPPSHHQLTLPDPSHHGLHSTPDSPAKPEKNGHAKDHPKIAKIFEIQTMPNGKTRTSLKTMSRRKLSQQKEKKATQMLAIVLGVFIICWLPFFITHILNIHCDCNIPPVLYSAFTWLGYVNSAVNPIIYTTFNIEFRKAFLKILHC

Structure (SMILES)	DOPAC level (% of control) (Rattus norvegicus [1]) [%]	Ki (D(2) dopamine receptor) [µM]	further results
CCCN1CCN(c2ccccc2)CC1	181	0.47	–
CCCN1CCC(c2ccccc2)CC1	131	0.17	–
CCCN1CCC(c2ccc(Cl)cc2)CC1	–	0.9	–
CCCN1CCC(c2ccc(OC)cc2)CC1	–	23	–
CCCN1CCC(c2cccc(S(=O)(=O)C(C)C)c2)CC1	205	–	–
CCCN1CCC(c2cccc(C)c2)CC1	115	–	–
CCCN1CCC(c2cccc(S(=O)(=O)C(F)(F)F)c2)CC1	258	–	–
CCCN1CCC(c2ccccc2OC)CC1	–	0.012	Activity (Rattus norvegicus [2]): 277%; Ki ([3]; read-out: Ki): 2.4 µM
CCCN1CCC(c2ccccc2C(F)(F)F)CC1	254	–	–
CCCN1CCN(c2ccccc2S(C)(=O)=O)CC1	283	0.58	Ki ([3]; read-out: Ki): > 583 µM; Ki ([3]; read-out: pKi (converted)): > 631 µM
CCCN1CCC(c2ccccc2OS(=O)(=O)C(F)(F)F)CC1	270	–	–
CCCN1CCC(c2cccc(OC)c2)CC1	140	1.5	Ki ([3]; read-out: Ki): 18 µM
CCCN1CCC(c2cccc(C(F)(F)F)c2)CC1	260	0.18	Ki ([3]; read-out: Ki): 128 µM
CCCN1CCC(c2cccc(C#N)c2)CC1	275	–	–
CCCN1CCN(c2cccc(OS(=O)(=O)C(F)(F)F)c2)CC1	285	–	–
CCCN1CCC(c2cccc(OS(=O)(=O)C(F)(F)F)c2)CC1	241	–	–
CCCN1CCC(c2cccc(S(=O)(=O)C3CCCC3)c2)CC1	170	3.8	Ki ([3]; read-out: Ki): > 583 µM; Ki ([3]; read-out: pKi (converted)): > 631 µM
CCCN1CCN(c2cccc(S(=O)(=O)c3ccccc3)c2)CC1	152	–	–

Structure (SMILES)	DOPAC level (% of control) (Rattus norvegicus [1]) [%]	Ki (D(2) dopamine receptor) [µM]	further results
CCCN1CCN(c2cccc(C(C)=O)c2)CC1	221	–	–
CCCN1CCC(c2cccc(OC(C)C)c2)CC1	112	–	–
CCCN1CCC(c2cccc(N3CCOCC3)c2)CC1	105	–	–
CCCN1CCN(c2cccc(OS(C)(=O)=O)c2)CC1	–	–	Activity (Rattus norvegicus [4]): 254%
CCCN1CCC(c2cccc(OC(C)(C)C)c2)CC1	196	–	–
CCCN1CCN(c2cccc(Cl)c2)CC1	250	–	–
CCCN1CCN(c2ccccc2C#N)CC1	–	–	Activity (Rattus norvegicus [2]): 313%
CCCN1CCN(c2cccc(O)c2)CC1	–	–	Ki ([3]; read-out: Ki): > 583 µM; Ki ([3]; read-out: pKi (converted)): > 631 µM
CCCN1CCN(c2ccc(OC)cc2)CC1	–	6.4	–
CCCN1CCN(c2cccc(OC)c2)CC1	255	0.3	Ki ([3]; read-out: Ki): 16 µM
CCCN1CCN(c2ccccc2C)CC1	327	–	–
CCCN1CCN(c2ccccc2Cl)CC1	368	–	–
CCCN1CCN(c2cccc(C#N)c2)CC1	314	0.27	Ki ([3]; read-out: Ki): > 583 µM; Ki ([3]; read-out: pKi (converted)): > 631 µM
CCCN1CCN(c2ccccc2O)CC1	270	–	–
CCCN1CCN(c2cccc(C(F)(F)F)c2)CC1	–	–	Activity (Rattus norvegicus [4]): 315%
CCCN1CCN(c2cccc(S(C)(=O)=O)c2)CC1	–	–	Ki ([3]; read-out: Ki): 126 µM
CCCN1CCN(c2ccccc2OC)CC1	370	0.022	Ki ([3]; read-out: Ki): > 583 µM; Ki ([3]; read-out: pKi (converted)): > 631 µM

From ChEMBL document CHEMBL2331278, “Synthesis, pharmacological evaluation and QSAR modeling of mono-substituted 4-phenylpiperidines and 4-phenylpiperazines” (Eur J Med Chem, 2013)
